Test results as given in patent US20120082623A1, “SHH Regulation and Methods Thereof” (priority 2009, published 2012).
“Also recorded” adds a separate entry of the source.

Legend:
[1] = tested on: medial forebrain bundle (mFB); experiment: Unilateral 6-OHDA injection into the medial forebrain bundle; turning bias and gene expression; type: in vivo, mouse; details: for Shh transcription in the vMB: wt and heterozygous GDNF mutant mice
SVZ proliferation = tested on: SVZ proliferation; set-up: reduction in SVZ proliferation overall (PCNA) / reduction in proliferation in the C cell compartment (PCNA): concentration or dose not given beside the values; details: cited from earlier work; for reduction in SVZ proliferation overall (PCNA) / reduction in proliferation in the C cell compartment (PCNA): systemic MPTP or unilateral 6-OHDA into the nigro-striatal pathway
[2] = tested on: Shh-nLZ C/C; Dat-Cre mutant mice; experiment: Gait dynamics on treadmill (DigiGait) after acute L-Dopa or THP in mice with Shh ablation from DA neurons; type: in vivo, mouse; details: for increased absolute paw angle / reduced brake time / Brake-Stride ratio: 12 month old mutant animals; for reduced brake time / Brake-Stride ratio: THP 3 mg/kg IP, 30 minutes prior
Text: Given the involvement of the basal ganglia in the production of gait patterns, gait dynamics by ventral plane videography of mice walking on a translucent treadmill was investigated (Digigait system, Mouse specifics, Inc.), from which comparative temporal, spatial and force indices of gait were derived (Hampton et al., Physiol Behav. 2004 Sep. 15; 82(2-3):381-9; Amende et al., J Neuroeng Rehabil. 2005 Jul. 25; 2:20) of experimental and control animals from 3 to 16 months.
Either drug or vehicle control 30 minutes prior to the analysis of gait dynamics was injected in 12 month old animals. […] (FIG. 39D). […] (FIG. 39B). […] (FIG. 40C).
Gait dynamics by ventral plane videography of mice walking on a translucent treadmill (Digigait system, Mouse specifics, Inc.) were investigated, from which comparative temporal, spatial and force indices of gait were derived (Hampton et al., 2010) of Shh-nLZ^C/C; Dat-Cre—and control animals from 3 to 16 months of age (Table 1). Since altered posture can confound comparative gait analysis based on absolute measures, further analysis of locomotion on the tread mill was focused on gait length variability and relative indices of gait dynamics (relative time allotted to Swing, Brake, Propel and Stance phases) and foot angle. In Shh-nLZ^C/C; Dat-Cre mutants, gait length coefficient of variability was 30% increased at 10 months of age (FIG. 48C).
Many of the locomotion disturbances observed in Shh-nLZ^C/C; Dat-Cre were reminiscent of the functional hall marks of Parkinson's spectrum diseases which are characterized by a general impoverishment of locomotion, reduced fluidity of movement, difficulties in initiating and terminating locomotion, and increased stride length variability (Hausdorff et. al, 1998). Whether dopamine substitution by L-Dopa and the muscarinic antagonist trihexiphenidyl (THP), drugs of proven efficacy in the management of symptoms of PD related diseases, will modify acutely the locomotion deficits of Shh-nLZ^C/C; Dat-Cre mice, was tested.
Spontaneous motor activity was measured in an open field arena using automatic tracking at 6 Hz by an EthoVision 3.1 system (Noldus Information Technology, Leesburg, Va.). Derivation of acceleration and deceleration profiles and indices for turning bias and locomotion complexity is described below. Analysis of gait parameters by forced locomotion was performed by ventral plane videography on a translucent tread mill as described (Digigait, Inc.; Hampton et al., 2010).

[3] = tested on: Shh-nLZ C/C; Dat-Cre mutant mice; experiment: Kinematic analysis of spontaneous locomotion (open field) after L-Dopa or THP; type: in vivo, mouse; details: phase III mutant animals
Protocol: In particular, Bradykinesia is observed in PD. Bradykinesia is the slowed ability to start and continue movements, and impaired ability to adjust the body's position. […] There were no significant differences in the maximal speed that control and mutant mice can travel at (FIG. 40E). The relative time each animals spends at different speeds during acceleration and deceleration in individual locomotion bouts was analyzed. The numbers of “surges”, that are the reversals from acceleration to deceleration and back within a single locomotion bout, were quantitated. The “speed bin” analysis and quantitation of surges type is schematized in FIG. 40F.
Mesostriatal computations take part in the sequencing of locomotor activity and in the termination of ongoing actions (Jin and Costa, 2010; Ding et al., 2010). These processes can be partially assessed by analysis of the kinematic complexity of individual bouts of locomotion in freely ambulating mice (Benjamini et al. 2011; see also Other Results and Discussion). Quantifying the number of alternations from acceleration to deceleration and back in individual bouts of locomotion of similar duration and overall amplitude (FIG. 63G; see also Other Results and Discussion), a 100% increase in locomotive complexity of Shh-nLZ^C/C; Dat-Cre mutants in phase II but a 40% decrease in complexity in phase III compared to control littermates was observed (FIG. 48F). How much time animals spend traveling at different velocities during individual bouts of locomotion of similar length and amplitude was quantified next (see Other Results and Discussion). In phase II mice spend most time locomoting at initial and at top speeds with no discernable differences between Shh-nLZ; Dat-Cre mutants and control littermates (FIG. 64A-B). In phase III, however, Shh-nLZ^C/C; Dat-Cre animals spend 50% more time at low velocities and 80% less time at submaximal speed levels before reaching maximal velocity (FIG. 48K and FIG. 64C). Shh-nLZ^C/C; Dat-Cre animals also spend more time at sub-maximal speed levels after the animal reached peak velocities in a given bout compared to controls (FIG. 64D). […]
Spontaneous motor activity was measured in an open field arena using automatic tracking at 6 Hz by an EthoVision 3.1 system (Noldus Information Technology, Leesburg, Va.). […]
The open field arena was a polycarbonate cage 30×60×25 cm placed in a sound proof chamber. Locomotion of each mouse was recorded and tracked automatically for 10 minutes after habituation. Motor activity was measured as total distance traveled and turning bias was calculated as the net turning angle divided by distance (degrees/cm). Turning bias was calculated by subtracting the sum of ipsi- to contra-lateral movements and is independent of displacement (Spink et al., 2001).

[4] = tested on: Th expressing dopaminergic neurons in the substantia nigra pars compacta; experiment: MPTP paradigm with and without cyclopamine; stereological quantification of Th+ cells
MPTP-lesioned mice = details: oral administration; cited from earlier work
ALS patients = details: cited from earlier work
[5] = biological target: T1, GDNF family receptor (GFR)α1 (Mus musculus, UniProt P97785); details: Neuro-2A cells; cited from earlier work
T1 construct: host or cells: Neuro-2A cells
T1 sequence (P97785 25-430): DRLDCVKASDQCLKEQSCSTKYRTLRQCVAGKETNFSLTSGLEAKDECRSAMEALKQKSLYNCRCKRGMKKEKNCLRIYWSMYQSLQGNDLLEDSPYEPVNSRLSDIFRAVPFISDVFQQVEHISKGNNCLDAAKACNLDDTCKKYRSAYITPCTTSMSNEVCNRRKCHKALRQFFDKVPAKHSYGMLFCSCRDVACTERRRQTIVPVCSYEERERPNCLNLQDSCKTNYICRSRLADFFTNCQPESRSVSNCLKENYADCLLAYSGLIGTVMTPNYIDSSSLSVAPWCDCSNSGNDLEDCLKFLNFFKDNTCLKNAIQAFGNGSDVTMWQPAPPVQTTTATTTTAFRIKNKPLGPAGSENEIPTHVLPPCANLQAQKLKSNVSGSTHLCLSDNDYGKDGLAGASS

Shh pathway = experiment: Cyclopamine injection into soleus/calf muscle; GDNF and CNTF expression by qtPCR; type: in vivo, mouse; details: for dose dependence of neurotrophic factor up-regulation: soleus of endstage G93A SOD animals, 0.5, 1, or 2 μg
[6] = unilateral striatal deafferentation (Winner et al. 2006)
[7] = single systemic dose 1 hour prior to brain harvest
[8] = unilateral injection into the soleus of 125 day old G93A SOD transgenic animals

## NCCc1cc(O)c(O)cc1O [6-OHDA, 6-hydroxy-dopamine]
[1]
  GDNF and ChAT transcription in the striatum: ipsi-lateral up-regulation of GDNF and ChAT transcription in the striatum
  expression of Th in the vMB: not affected
  turning bias: contra lateral turning bias
  Shh transcription in the vMB: up-regulation of Shh transcription in the ipsilateral ventral midbrain
[1]; listed as 6 OH-DA
  Shh transcription in the vMB: ipsi-lateral up-regulation of Shh transcription in the vMB
[1]; wt animals
  GDNF transcription in the striatum: No up regulation of GDNF transcription was detected
SVZ proliferation
  reduction in SVZ proliferation overall (PCNA): 40%
  reduction in proliferation in the C cell compartment (PCNA): 50%
SVZ proliferation; [6]
  increase in the production of newly born Pax6+, TH+ periglomerular DA neurons in the olfactory bulb ipsilateral to the lesion: threefold
  reduction in proliferation within the SVZ: 40%

## N[C@@H](Cc1ccc(O)c(O)c1)C(=O)O [L-Dopa, Levodopa]
[2]
  increased absolute paw angle: normalized the alterations in paw angles
[2]; L-Dopa 20 mg/kg SC
  reduced brake time / Brake-Stride ratio: did not correct the reduction in brake time
[2]; L-Dopa 20 mg/kg SC, listed as L-DOPA
  reduced brake time / Brake-Stride ratio: not L-DOPA
[2]; listed as L-DOPA
  increased absolute paw angle: normalized by L-DOPA
[2]; experimental and control animals, L-Dopa 20 mg/kg SC
  Brake-Stride ratios: reduced Brake-Stride ratios in both experimental and control animals
[3]
  deficits in the initiation of acceleration and deceleration (time at low speeds): partially normalized; also recorded: normalize the deficit during locomotion initiation; also recorded: ameliorated the deficits in the initiation of acceleration and deceleration; also recorded: ameliorate the deficits at low speeds
  time spent locomoting at high / sub-maximal speeds: Neither drug effected the time spend locomoting at sub-maximal speeds; also recorded: not those observed at higher speeds; also recorded: neither drug normalized the time; also recorded: do not normalize the differences at high locomotion speeds

## CN1CC=C(c2ccccc2)CC1 [MPTP, 1-methyl-4-phenyl-1,2,3,6-tetrahydropyridine]
SVZ proliferation
  reduction in SVZ proliferation overall (PCNA): 40%
  reduction in proliferation in the C cell compartment (PCNA): 50%
[4]; MPTP 30 mg/kg/day for 4 days, day 33, n=5
  reduction in the numbers of Th+ cells compared to vehicle controls: 39%

## C[C@H]1CC[C@@]2(OC1)O[C@H]1C[C@H]3[C@@H]4CC[C@@H]5C[C@@H](O)CC[C@]5(C)[C@H]4CC[C@]3(C)[C@H]1[C@@H]2C [PYM50028]
MPTP-lesioned mice
  loss of dopaminergic neurons from the substantia nigra: attenuated the loss of dopaminergic neurons from the substantia nigra
  striatal GDNF: significant elevation of striatal GDNF

## Nc1nc2ccc(OC(F)(F)F)cc2s1 [Riluzole]
ALS patients
  measures of function: has not been shown to have significant effect on measures of function

## CCCN(CCC)CCc1cccc2c1CC(=O)N2 [Ropinirole]
SVZ proliferation; [7]
  mitotic activity of the SVZ (PCNA+ cells) on the lesioned side: restores the mitotic activity of the SVZ
  proliferative index on the unlesioned side: increases the proliferative index on the unlesioned side

## OC(CCN1CCCCC1)(c1ccccc1)C1CCCCC1 (centres unmarked) [THP, Trihexyphenidyl]
[2]
  increased absolute paw angle: not by THP
[2]; L-Dopa 20 mg/kg SC
  reduced brake time / Brake-Stride ratio: normalized by THP; also recorded: normalized Brake Stride ratios to control levels; also recorded: normalized Brake-Stride ratios to control levels
[3]
  deficits in the initiation of acceleration and deceleration (time at low speeds): partially normalized; also recorded: normalize the deficit during locomotion initiation; also recorded: ameliorated the deficits in the initiation of acceleration and deceleration; also recorded: ameliorate the deficits at low speeds
  time spent locomoting at high / sub-maximal speeds: Neither drug effected the time spend locomoting at sub-maximal speeds; also recorded: not those observed at higher speeds; also recorded: neither drug normalized the time; also recorded: do not normalize the differences at high locomotion speeds

## CCN(CC)CCCC(C)Nc1cc(/C=C/c2ccccc2Cl)nc2cc(Cl)ccc12 (centres unmarked) [XIB4035]
[5]
  neurotrophic effects: mimics the neurotrophic effects of GDNF

## CC1=C2C[C@H]3[C@@H](CC=C4C[C@@H](O)CC[C@@]43C)[C@@H]2CC[C@]12O[C@@H]1C[C@H](C)CN[C@H]1[C@H]2C [cyclopamine]
Shh pathway; injection into calf muscles of control animals
  up regulation of GDNF expression in the muscle: 20 fold
Shh pathway; injection into limb muscle of wild type (wt) and G93A SOD1 mice
  effect on GDNF expression in adult muscles: up regulation of GDNF expression
Shh pathway; injection into the calf muscles of end stage G93A SOD mice
  up-regulation of CNTF: 20 fold
Shh pathway; right soleus of 125 day old G93A SOD transgenic animals, 1 mg of Cyclopamine, 30 h post injection
  maximal up regulation of GDNF, fold change in gene expression over control side: 27 fold
Shh pathway; right soleus of 125 day old G93A SOD transgenic animals, 2 mg of cyclopamine, 30 h post injection
  maximal upregulation of CNTF, fold change in gene expression over control side: 20 fold
Shh pathway
  dose dependence of neurotrophic factor up-regulation: dose dependent up-regulation of neurotrophic factor expression
Shh pathway; listed as Cyclopamine
  dose dependence of neurotrophic factor up-regulation: dose dependent up-regulation of GDNF and CNTF
Shh pathway; [8]
  increase in CNTF expression over the saline injected contra lateral control soleus: 8 fold
  increase in GDNF expression over the saline injected contra lateral control soleus: 12 fold
[4]; MPTP plus cyclopamine 50 mg/kg/day by osmotic micropump, n=1
  reduction in Th+ cells in the ventral midbrain compared to control animals: 21%
[4]; MPTP plus cyclopamine 50 mg/kg/day, n=1
  effect on MPTP induced neurodegeneration: statistically significant reduction in neurodegeneration
